This note sets out measurements from patent publication US10562857B2 (AFASCI, Inc., priority 2015, dated 2020).

For the assay, the target named is T1, Cav3.2 channel (Homo sapiens, UniProt O95180).
T1 construct: expressed in transfected cells; host or cells: HEK-293, tetracycline inducible expression system (Invitrogen)
The experiment in a line: Whole-cell patch clamp of T-type Cav3.2 channel expressed in HEK293 cells. The assay is classed as cell-based. The note with it: for IC50: Table 1, tested at at least 4 concentrations, read-out: IC50. The procedure: Cav3.1, Cav3.2 or Cav3.3 channels were expressed in human embryonic kidney (HEK)-293 cells using a tetracycline inducible expression system (Invitrogen). Cells were maintained in 25 cm^2 tissue culture flasks at 37° C., 5% CO2, and 100% relative humidity in D-MEM/F12 (Dulbecco's Modified Eagle Medium/Nutrient Mixture F-12; Gibco) supplemented with fetal bovine serum (FBS, 10% v/v), sodium pyruvate (0.5 mM, Gibco), penicillin-streptomycin (100 U/mL, 100 μg/mL) and Geneticin® Selective antibiotic (G418; 0.5 mg/mL). Cells were detached from the flask base using a non-enzymatic cell dissociation solution (Cellstripper, Corning), removed and re-seeded on to poly-D-lysine coated glass coverslips in 35 mm dishes. Cells in dishes were further supplemented with G418 at a final concentration of 1 mg/mL and after 24 hours, expression of Cav3.2 was induced with 1 μg/mL tetracycline. The medium for the HEK-293 cells was composed of D-MEM/F-12 (Dulbecco's Modified Eagle Medium/Nutrient Mixture F-12; Gibco, #11330-032) and 15 mM HEPES buffer, with L-glutamine and pyridoxine hydrochloride. It was supplemented with FBS (Fetal Bovine Serum), P/S (Penicillin/Streptomycin) (Gibco, #15140-122), and sodium pyruvate 100 mM (Gibco, #11360-070). At least 24 hours before the assay, expression of the alpha-2-delta-1 and beta2a subunits of the calcium channel were induced with 1 ug/mL tetracycline.
Whole-cell voltage clamp recordings were performed on rat or mouse DRG neurons within 2 days after acutely dissociation or cultured HEK293 cells expressing T-type channels (encoded by Cav3.1, Cav3.2 or Cav3.3 channels). All experiments were performed at room temperature (around 21° C.). Whole-cell currents were recorded using a MultiClamp 700B amplifier and analyzed offline with pCLAMP10.4 software (Molecular Devices, LLC, Sunnyvale Calif., USA). To record calcium currents in DRG and HEK293 cells, the external solution was composed (in mM) of 115 choline-Cl, 30 TEA-Cl, 2 CaCl2, 10 glucose and 10 HEPES (pH 7.3-7.4 adjusted with TEA-OH; osmolality verified as 295 mOsm/kg). The internal solution was composed (in mM) of 125 CsCl, 10 HEPES (acid), 10 EGTA (ethylene glycol tetraacetic acid), 1 CaCl2, 1 MgCl2, 4 MgATP and 0.3 MgGTP (pH 7.3-7.4 adjusted with CsOH; osmolality verified as 295 mOsm/kg). Since the sodium ions were absent in the external solution, tetrodoctoxin was not needed. Calcium currents were recorded at a holding potential of −100 mV and then depolarized to −30 mV for 100 ms to activate either Cav3.1, Cav3.2, or Cav3.3 expressed in HEK cells. An interpulse interval of 10 seconds allowed the channel recovery from inactivation, and achieved stable current recordings. To record sodium (Na^+) currents in DRG neurons, the external solution used the modified Krebs solution specified above. The internal solution was composed (in mM) of 120 CsF, 10 HEPES, 11 EGTA, 1 CaCl2, 1 MgCl2, 10 TEA-Cl, 4 MgATP and 0.3 MgGTP (pH 7.3-7.4 adjusted with CsOH). […] To record potassium currents in DRG neurons, the external solution used the modified Kreb's solution specified above. The internal solution was composed (in mM) of 65 KCl, 80 KF, 5 KOH, 10 EGTA, 2 MgATP (pH 7.3-7.4 adjusted with KOH). Recording electrodes were fabricated using a P-87 puller (Sutter Instrument Co., Novato, Calif., USA). The tip of resistance was 3-4 MQ in bath and the series resistance was less than 10 MΩ after whole cell configuration. All reagents were purchased from Sigma unless specified otherwise. Test compounds were usually applied via a rapid solution exchange system with 8 fine polyplastic tubings (100 μm, OD) glued in a holder in parallel and located closely to the recorded cells. […]
(In general: The patch-clamp technique gives a direct electrical read-out from membranes.)

[1] abbreviates: HEK293, Table 1 primary screening, 3 μM as indicated in cell, read-out: % inhibition at 3 μM.

Where two headings read alike, the source gives them in different places.

T1 sequence (O95180 whole entry): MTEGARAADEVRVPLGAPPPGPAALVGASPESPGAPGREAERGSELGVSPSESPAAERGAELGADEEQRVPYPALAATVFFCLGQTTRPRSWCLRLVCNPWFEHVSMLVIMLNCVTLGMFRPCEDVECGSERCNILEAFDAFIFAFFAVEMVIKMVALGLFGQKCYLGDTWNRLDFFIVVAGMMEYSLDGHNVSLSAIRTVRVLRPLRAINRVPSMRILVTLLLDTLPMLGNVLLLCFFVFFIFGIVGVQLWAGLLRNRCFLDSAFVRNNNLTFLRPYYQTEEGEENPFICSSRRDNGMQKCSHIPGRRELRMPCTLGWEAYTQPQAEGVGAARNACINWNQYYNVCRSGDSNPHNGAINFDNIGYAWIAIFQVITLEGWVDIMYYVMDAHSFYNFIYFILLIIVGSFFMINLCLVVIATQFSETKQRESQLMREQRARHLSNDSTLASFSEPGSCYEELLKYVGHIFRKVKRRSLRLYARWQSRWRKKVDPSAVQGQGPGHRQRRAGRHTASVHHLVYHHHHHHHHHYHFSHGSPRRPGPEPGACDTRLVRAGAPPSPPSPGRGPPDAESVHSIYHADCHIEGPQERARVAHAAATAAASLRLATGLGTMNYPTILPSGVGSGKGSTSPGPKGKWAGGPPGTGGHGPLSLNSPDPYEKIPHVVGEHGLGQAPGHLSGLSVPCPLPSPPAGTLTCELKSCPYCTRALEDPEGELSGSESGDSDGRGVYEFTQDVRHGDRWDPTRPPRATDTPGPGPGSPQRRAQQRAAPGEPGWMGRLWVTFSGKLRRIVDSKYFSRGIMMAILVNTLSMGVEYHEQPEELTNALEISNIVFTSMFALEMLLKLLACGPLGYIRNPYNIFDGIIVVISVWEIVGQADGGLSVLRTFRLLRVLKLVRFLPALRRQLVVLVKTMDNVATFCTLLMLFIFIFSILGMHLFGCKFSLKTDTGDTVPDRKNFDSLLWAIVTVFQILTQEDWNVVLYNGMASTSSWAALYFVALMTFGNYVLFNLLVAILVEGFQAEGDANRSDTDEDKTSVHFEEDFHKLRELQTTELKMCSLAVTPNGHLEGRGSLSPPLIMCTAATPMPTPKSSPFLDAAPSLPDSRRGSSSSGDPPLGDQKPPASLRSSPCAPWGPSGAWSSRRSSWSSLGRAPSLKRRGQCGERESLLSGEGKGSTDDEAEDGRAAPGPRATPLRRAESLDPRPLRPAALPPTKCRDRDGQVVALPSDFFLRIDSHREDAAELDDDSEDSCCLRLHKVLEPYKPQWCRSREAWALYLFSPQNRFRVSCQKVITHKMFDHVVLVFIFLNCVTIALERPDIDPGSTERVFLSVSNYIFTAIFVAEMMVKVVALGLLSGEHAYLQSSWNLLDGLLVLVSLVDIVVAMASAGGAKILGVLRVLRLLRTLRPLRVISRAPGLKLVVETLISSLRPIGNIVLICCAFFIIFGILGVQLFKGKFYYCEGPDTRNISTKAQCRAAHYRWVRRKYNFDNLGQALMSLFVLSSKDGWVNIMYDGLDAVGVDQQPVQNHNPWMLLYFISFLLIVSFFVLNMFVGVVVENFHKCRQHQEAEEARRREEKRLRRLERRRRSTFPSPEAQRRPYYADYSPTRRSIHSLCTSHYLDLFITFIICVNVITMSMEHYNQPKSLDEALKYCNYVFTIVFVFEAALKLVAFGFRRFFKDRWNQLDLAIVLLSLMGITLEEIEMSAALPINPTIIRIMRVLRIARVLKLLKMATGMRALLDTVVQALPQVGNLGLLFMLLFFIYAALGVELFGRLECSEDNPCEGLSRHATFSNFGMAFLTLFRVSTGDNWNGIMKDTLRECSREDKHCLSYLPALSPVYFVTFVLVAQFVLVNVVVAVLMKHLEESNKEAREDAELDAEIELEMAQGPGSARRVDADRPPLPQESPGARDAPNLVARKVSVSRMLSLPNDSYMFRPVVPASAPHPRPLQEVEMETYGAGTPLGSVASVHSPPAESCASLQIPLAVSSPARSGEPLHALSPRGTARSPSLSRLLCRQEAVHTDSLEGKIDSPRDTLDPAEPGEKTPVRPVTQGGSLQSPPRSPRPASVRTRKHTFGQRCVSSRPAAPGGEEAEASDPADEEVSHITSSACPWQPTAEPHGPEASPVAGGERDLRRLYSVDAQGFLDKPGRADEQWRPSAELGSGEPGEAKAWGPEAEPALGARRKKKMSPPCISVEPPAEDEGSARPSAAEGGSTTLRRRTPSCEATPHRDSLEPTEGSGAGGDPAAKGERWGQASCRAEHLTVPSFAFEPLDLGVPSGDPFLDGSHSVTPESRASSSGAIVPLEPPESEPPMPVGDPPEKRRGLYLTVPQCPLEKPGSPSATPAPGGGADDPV

For the compound `CC(C)(C)NC(=O)CN1CCC2(CC1)C[C@@H]2NC(=O)c1cc(Cl)cc(Cl)c1` (single isomer, unassigned) [Example 56, (S)—N-(6-(2-(tert-Butylamino)-2-oxoethyl)-6-azaspiro[2.5]octan-1-yl)-3,5-dichlorobenzamide or (R)—N-(6-(2-(tert-Butylamino)-2-oxoethyl)-6-azaspiro[2.5]octan-1-yl)-3,5-dichlorobenzamide], the half-maximal inhibitory concentration (IC50) came out at 190 nM.
As for `CC(C)(C)NC(=O)CN1CCC2(CC1)C[C@@H]2NC(=O)[C@]12C[C@@]3(F)C[C@](F)(C[C@](F)(C3)C1)C2` (single isomer, unassigned) [Example 131, (3S,5S,7S)—N—((R)-6-(2-(tert-Butylamino)-2-oxoethyl)-6-azaspiro[2.5]octan-1-yl)-3,5,7-trifluoroadamantane-1-carboxamide or (3S,5S,7S)—N—((S)-6-(2-(tert-Butylamino)-2-oxoethyl)-6-azaspiro[2.5]octan-1-yl)-3,5,7-trifluoroadamantane-1-carboxamide], the 50% inhibitory concentration (IC50) turned out to be 620 nM.
Regarding `CC(C)(C)NC(=O)CN1CCC2(CC1)C[C@H]2C(=O)Nc1cc(F)cc(C(F)(F)F)c1` (single isomer, unassigned) [Example 133, (R)-6-(2-(tert-Butylamino)-2-oxoethyl)-N-(3-fluoro-5-(trifluoromethyl)phenyl)-6-azaspiro[2.5]octane-1-carboxamide or (S)-6-(2-(tert-Butylamino)-2-oxoethyl)-N-(3-fluoro-5-(trifluoromethyl)phenyl)-6-azaspiro[2.5]octane-1-carboxamide], the IC50 came to 200 nM.
The same measure, in the same setting: next, `CC(C)(C)C(=O)CN1CCC2(CC1)C[C@H]2NC(=O)c1cc(F)cc(Cl)c1` (single isomer, unassigned) [Example 134, (R)-3-Chloro-N-(6-(3,3-dimethyl-2-oxobutyl)-6-azaspiro[2.5]octan-1-yl)-5-fluorobenzamide or (S)-3-Chloro-N-(6-(3,3-dimethyl-2-oxobutyl)-6-azaspiro[2.5]octan-1-yl)-5-fluorobenzamide]: 120 nM; `CC(C)(C)C(O)CN1CCC2(CC1)CC2NC(=O)c1cc(F)cc(Cl)c1` (single isomer, unassigned) [Example 135, 3-Chloro-5-fluoro-N-((1R)-6-(2-hydroxy-3,3-dimethylbutyl)-6-azaspiro[2.5]octan-1-yl)benzamide or 3-Chloro-5-fluoro-N-((1S)-6-(2-hydroxy-3,3-dimethylbutyl)-6-azaspiro [2.5]octan-1-yl) benzamide]: 210 nM.
On the same count and under the same terms, to `O=C(CN1CCC2(CC1)CC2NC(=O)c1cc(F)cc(Cl)c1)c1ccc(C(F)(F)F)cc1` (single isomer, unassigned) [Example 136, (R)-3-Chloro-5-fluoro-N-(6-(2-oxo-2-(4-(trifluoromethyl)phenyl)ethyl)-6-azaspiro[2.5]octan-1-yl)benzamide or (S)-3-Chloro-5-fluoro-N-(6-(2-oxo-2-(4-(trifluoromethyl)phenyl)ethyl)-6-azaspiro[2.5]octan-1-yl) benzamide] belongs 260 nM; to `O=C(N[C@@H]1CC12CCN(CC(O)c1ccc(C(F)(F)F)cc1)CC2)c1cc(F)cc(Cl)c1` (single isomer, unassigned) [Example 137, 3-Chloro-5-fluoro-N-((1R)-6-(2-hydroxy-2-(4-(trifluoromethyl)phenyl)ethyl)-6-azaspiro[2.5]octan-1-yl)benzamide or 3-Chloro-5-fluoro-N-((1S)-6-(2-hydroxy-2-(4-(trifluoromethyl)phenyl)ethyl)-6-azaspiro[2.5]octan-1-yl)benzamide], 70 nM.
Consider `O=C(CN1CCC2(CC1)CC2NC(=O)c1cc(F)cc(Cl)c1)c1ccc(F)cc1` (single isomer, unassigned) [Example 138, (R)-3-Chloro-5-fluoro-N-(6-(2-(4-fluorophenyl)-2-oxoethyl)-6-azaspiro[2.5]octan-1-yl)benzamide or (S)-3-Chloro-5-fluoro-N-(6-(2-(4-fluorophenyl)-2-oxoethyl)-6-azaspiro[2.5]octan-1-yl)benzamide], for which the half-inhibitory concentration (IC50) worked out at 180 nM.
Still for that read-out and setting: next, `O=C(NC1CC12CCN(CC(O)c1ccc(F)cc1)CC2)c1cc(F)cc(Cl)c1` (single isomer, unassigned) [Example 139, 3-Chloro-5-fluoro-N-((1R)-6-(2-(4-fluorophenyl)-2-hydroxyethyl)-6-azaspiro[2.5]octan-1-yl)benzamide or 3-Chloro-5-fluoro-N-((1S)-6-(2-(4-fluorophenyl)-2-hydroxyethyl)-6-azaspiro[2.5]octan-1-yl)benzamide]: 90 nM.
Still for that read-out and setting: to `CC(C)NC(=O)CN1CCC2(CC1)CC2NC(=O)c1cc(F)cc(Cl)c1` (single isomer, unassigned) [Example 140, (R)-3-Chloro-5-fluoro-N-(6-(2-(isopropylamino)-2-oxoethyl)-6-azaspiro[2.5]octan-1-yl)benzamide or (S)-3-Chloro-5-fluoro-N-(6-(2-(isopropylamino)-2-oxoethyl)-6-azaspiro[2.5]octan-1-yl)benzamide] belongs 520 nM.
Same read-out and setting: to `CC(C)(C)NC(=O)CN1CCC2(CCC2NC(=O)c2cc(Cl)cc(Cl)c2)CC1` (stereo in doubt) [Example 114, (R)—N-(7-(2-(tert-Butylamino)-2-oxoethyl)-7-azaspiro[3.5]nonan-1-yl)-3,5-dichlorobenzamide] belongs 230 nM.
Regarding `CC(C)CN1CCC2(CC1)CC2NC(=O)c1ccccc1` (centres unmarked) [Example 1, N-(6-Isobutyl-6-azaspiro[2.5]octan-1-yl)benzamide], for the setting “HEK293, read-out: % inhibition at 3 μM”, the inhibition at 3 µM came out at 15.3%.
Regarding `CC(C)(C)CCN1CCC2(CC1)CC2NC(=O)c1ccccc1` (centres unmarked) [Example 2, N-(6-(3,3-Dimethylbutyl)-6-azaspiro[2.5]octan-1-yl)benzamide], the inhibition at 3 µM under setting [1] is 55.3%.
Same read-out and setting: to `O=C(NC1CC12CCN(CCc1ccccc1)CC2)c1ccccc1` (centres unmarked) [Example 3, N-(6-Phenethyl-6-azaspiro[2.5]octan-1-yl)benzamide] belongs 47.7%; to `CC(C)(C)NC(=O)CN1CCC2(CC1)CC2NC(=O)c1ccccc1` (centres unmarked) [Example 4, N-(6-(2-(tert-Butylamino)-2-oxoethyl)-6-azaspiro[2.5]octan-1-yl)benzamide], 24.7%.
As to `O=C(NC1CC12CCN(Cc1ccccc1)CC2)c1ccccc1` (centres unmarked) [Example 5, N-(6-Benzyl-6-azaspiro[2.5]octan-1-yl)benzamide], under setting [1], the inhibition at 3 µM is 44%.
The same measure, in the same setting: next, `CC(C)CN1CCC2(CC1)CC2NC(=O)c1ccc(Cl)c(Cl)c1` (centres unmarked) [Example 6, 3,4-Dichloro-N-(6-isobutyl-6-azaspiro[2.5]octan-1-yl)benzamide]: 29.1%.
In the case of `CC(C)(C)CCN1CCC2(CC1)CC2NC(=O)c1ccc(Cl)c(Cl)c1` (centres unmarked) [Example 7, 3,4-Dichloro-N-(6-(3,3-dimethylbutyl)-6-azaspiro[2.5]octan-1-yl)benzamide], the 50% inhibitory concentration (IC50) came to 120 nM.
The same measure, in the same setting: next, `O=C(NC1CC12CCN(CCc1ccccc1)CC2)c1ccc(Cl)c(Cl)c1` (centres unmarked) [Example 8, 3,4-Dichloro-N-(6-phenethyl-6-azaspiro[2.5]octan-1-yl)benzamide]: 120 nM; `CC(C)(C)NC(=O)CN1CCC2(CC1)CC2NC(=O)c1ccc(Cl)c(Cl)c1` (centres unmarked) [Example 9, N-(6-(2-(tert-Butylamino)-2-oxoethyl)-6-azaspiro[2.5]octan-1-yl)-3,4-dichlorobenzamide]: 80 nM.

As usually defined, the IC50 is the concentration needed to halve the response being measured. For orientation: inhibition means the relative decrease from the control value, in per cent.
